Source: PubChem BioAssay AID2060509 (Molecular Pharmacology Branch, DTP, NCI, 2025)

System: 485176-168-R4-J1-PDC spheroids with HUVEC/MSC, viability
Experiment: Anticancer human tumor 485176-168-R4-J1-PDC patient-derived pancreatic adenocarcinoma cell line growth inhibition [GQUAD]
Settings: for IC50: curve of first compound; for viability, T/C: stronger effect = lower value
From the text: DNA G-quadruplex Stabilizer Agents in Combinations in Complex Spheroids
A high-throughput screen of multi-cell type tumor spheroids was designed to identify active combinations of DNA G-quadruplex stabilizer agents and targeted small molecules. Complex spheroids include a stromal component modeled by human endothelial cells (HUVEC) and fibroblasts modeled by human mesenchymal stem cells (MSCs). The concentration ranges selected for each drug and investigational agent were based upon clinically achievable concentrations if the clinical Cmax of the agent was known.
Compounds. The drugs and investigational agents: pidnarulex (CX-5461; NSC782164), APTO-253 (NSC789042), BRACO-19 (NSC847499), peposertib (NSC802822), ceralasertib (NSC780249), elimusertib (NSC800525), camonsertib (NSC841442), AZD-1390 (NSC803789), olaparib (NSC753686), talazoparib (NSC767125), ART-558 (NSC835418), sotorasib (NSC818433), MRTX-1133 (NSC836407), SN-38 (NSC673596), topotecan (NSC609699), etoposide (NSC141540), doxorubicin (NSC123127), gemcitabine (NSC613327), 5-fluorouracil (NSC19893), paclitaxel (NSC125973), vemurafenib (NSC761431), panobinostat (NSC761190), R-306465 (JNJ-16241199; NSC773264), adavosertib (NSC754352), TP-3654 (NSC805149), carboplatin (NSC241240), KSQ-4279 (NSC840948), and staurosporine (NSC755774) were obtained from the National Cancer Institute (NCI) Developmental Therapeutics Program Chemical Repository (34). The FDA-approved anticancer drug set is available from the NCI Developmental Therapeutics Program. […] The stock solutions were prepared in dimethyl sulfoxide (DMSO, Sigma-Aldrich, St. Louis, MO, cat. D2650) at 800-fold the tested concentration and stored at -70 degrees C prior to their use. All drugs and investigational agents were tested over a range starting from a high concentration at or near the clinical Cmax and decreasing in half-log increments. If the clinical Cmax for an agent had not been determined, the highest concentration tested was 10 microM.
2.3 Cell Culture. All cells were maintained in an incubator at 37 degrees C and 5% CO2 with 95% humidity. The PDC lines were cultured according to standard operating procedures established by the NCI PDMR. All PDCs were thawed and cultured in Matrigel-coated flasks prepared with a working solution of 1X Ham's F-12 nutrient mix, without supplementation (Invitrogen, cat. 11765054), 100 U/mL penicillin-streptomycin (Invitrogen, cat. 15140122), and 2.5% Matrigel (Corning Inc., cat. 354248) for the first three passages. The 857933-349-R-J2-PDC line was cultured in 6C/Colon 1B media, which includes advanced DMEM/F-12 (Thermo Fisher Scientific, cat. 12634028), 10 mM HEPES (Thermo Fisher Scientific, cat. 15630080), 1X GlutaMAX supplement (Thermo Fisher Scientific, cat. 35050061), 0.1 mg/mL primocin (InvivoGen, cat. ant-pm-2), 10% defined fetal bovine serum, heat inactivated (HyClone Laboratories Inc., cat. SH30070.03HI), 50% L-WRN conditioned media (ATCC, cat. CRL-3276), 1.25 mM N-Acetyl-L-cysteine (Sigma-Aldrich, cat. A9165), 10 mM nicotinamide (Sigma-Aldrich, cat. N0636), 1X B-27 supplement (Thermo Fisher Scientific, cat. 17504044), 1X N-2 supplement (Thermo Fisher Scientific, cat. 17502048), 10 microM Y-27632 dihydrochloride (Tocris Bioscience, cat. 1254), and 50 ng/mL human EGF recombinant protein (Thermo Fisher Scientific, cat. PHG0311). The 485176-168-R4-J1-PDC line was cultured in Panc media, which includes all 6C/Colon 1B media components plus 100 ng/mL human FGF-10 (Thermo Fisher Scientific, cat. 100-26), 500 nM SB-431542 (Selleckchem, cat. S1067), and gastrin (Tocris, cat. 3006).
[…]

[1] = second compound 0.0316 µM, first compound 0.0316 µM
[2] = second compound 0.0316 µM, first compound 0.316 µM
[3] = second compound 0.1 µM, first compound 0.0316 µM
[4] = second compound 0.1 µM, first compound 0.316 µM
[5] = second compound 0.316 µM, first compound 0.0316 µM
[6] = second compound 0.316 µM, first compound 0.316 µM
[7] = second compound 1 µM, first compound 0.0316 µM
[8] = second compound 1 µM, first compound 0.316 µM
[9] = second compound 3.16 µM, first compound 0.0316 µM
[10] = second compound 3.16 µM, first compound 0.316 µM
[11] = second compound 10 µM, first compound 0.0316 µM
[12] = second compound 10 µM, first compound 0.316 µM
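Also: spheroids exposed to compounds for seven days before readout.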
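For viability, T/C in this document: percent viability relative to DMSO vehicle control wells as 100%.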

COc1ncnc(C2CC2)c1-c1ncc2cnn(Cc3ccc(-c4nc(C(F)(F)F)cn4C(C)C)cc3)c2n1 + Cc1[nH]c2ccc(F)cc2c1-c1nc2c3cccnc3c3ncccc3c2[nH]1
IC50 (second compound 0.0316 µM): > 10000 nM | IC50 (second compound 0.1 µM): > 10000 nM | IC50 (second compound 0.316 µM): > 10000 nM | IC50 (second compound 1 µM): > 10000 nM | IC50 (second compound 3.16 µM): > 10000 nM | IC50 (second compound 10 µM): > 10000 nM | viability, T/C [1]: 118% | viability, T/C (second compound 0.0316 µM, first compound 0.1 µM): 81.8% | viability, T/C [2]: 101% | viability, T/C (second compound 0.0316 µM, first compound 1 µM): 105% | viability, T/C (second compound 0.0316 µM, first compound 3.16 µM): 104% | viability, T/C (second compound 0.0316 µM, first compound 10 µM): 94.2% | viability, T/C [3]: 101% | viability, T/C (second compound 0.1 µM, first compound 0.1 µM): 106% | viability, T/C [4]: 102% | viability, T/C (second compound 0.1 µM, first compound 1 µM): 102% | viability, T/C (second compound 0.1 µM, first compound 3.16 µM): 102% | viability, T/C (second compound 0.1 µM, first compound 10 µM): 110% | viability, T/C [5]: 91% | viability, T/C (second compound 0.316 µM, first compound 0.1 µM): 85.4% | viability, T/C [6]: 107% | viability, T/C (second compound 0.316 µM, first compound 1 µM): 92.4% | viability, T/C (second compound 0.316 µM, first compound 3.16 µM): 110% | viability, T/C (second compound 0.316 µM, first compound 10 µM): 110% | viability, T/C [7]: 84.9% | viability, T/C (second compound 1 µM, first compound 0.1 µM): 106% | viability, T/C [8]: 118% | viability, T/C (second compound 1 µM, first compound 1 µM): 108% | viability, T/C (second compound 1 µM, first compound 3.16 µM): 115% | viability, T/C (second compound 1 µM, first compound 10 µM): 97% | viability, T/C [9]: 88.4% | viability, T/C (second compound 3.16 µM, first compound 0.1 µM): 90.7% | viability, T/C [10]: 104% | viability, T/C (second compound 3.16 µM, first compound 1 µM): 93.8% | viability, T/C (second compound 3.16 µM, first compound 3.16 µM): 93% | viability, T/C (second compound 3.16 µM, first compound 10 µM): 80.5% | viability, T/C [11]: 90.3% | viability, T/C (second compound 10 µM, first compound 0.1 µM): 97% | viability, T/C [12]: 83.5% | viability, T/C (second compound 10 µM, first compound 1 µM): 90.9% | viability, T/C (second compound 10 µM, first compound 3.16 µM): 96.9% | viability, T/C (second compound 10 µM, first compound 10 µM): 84.6%

Cc1[nH]c2ccccc2c1CCNCc1ccc(/C=C/C(=O)NO)cc1 + Cc1[nH]c2ccc(F)cc2c1-c1nc2c3cccnc3c3ncccc3c2[nH]1
IC50 (second compound 0.0316 µM): 158 nM | IC50 (second compound 0.1 µM): 163 nM | IC50 (second compound 0.316 µM): 170 nM | IC50 (second compound 1 µM): 164 nM | IC50 (second compound 3.16 µM): 129 nM | IC50 (second compound 10 µM): 150 nM | viability, T/C (second compound 0.0316 µM, first compound 0.000999 µM): 99.1% | viability, T/C (second compound 0.0316 µM, first compound 0.00316 µM): 106% | viability, T/C (second compound 0.0316 µM, first compound 0.00999 µM): 96.3% | viability, T/C [1]: 97% | viability, T/C (second compound 0.0316 µM, first compound 0.0999 µM): 77.1% | viability, T/C [2]: 9.63% | viability, T/C (second compound 0.1 µM, first compound 0.000999 µM): 105% | viability, T/C (second compound 0.1 µM, first compound 0.00316 µM): 104% | viability, T/C (second compound 0.1 µM, first compound 0.00999 µM): 89.5% | viability, T/C [3]: 89% | viability, T/C (second compound 0.1 µM, first compound 0.0999 µM): 78.7% | viability, T/C [4]: 15.7% | viability, T/C (second compound 0.316 µM, first compound 0.000999 µM): 103% | viability, T/C (second compound 0.316 µM, first compound 0.00316 µM): 89.9% | viability, T/C (second compound 0.316 µM, first compound 0.00999 µM): 80% | viability, T/C [5]: 82.4% | viability, T/C (second compound 0.316 µM, first compound 0.0999 µM): 81.3% | viability, T/C [6]: 15.3% | viability, T/C (second compound 1 µM, first compound 0.000999 µM): 82.4% | viability, T/C (second compound 1 µM, first compound 0.00316 µM): 89.7% | viability, T/C (second compound 1 µM, first compound 0.00999 µM): 95% | viability, T/C [7]: 89.3% | viability, T/C (second compound 1 µM, first compound 0.0999 µM): 72.8% | viability, T/C [8]: 19.7% | viability, T/C (second compound 3.16 µM, first compound 0.000999 µM): 79.5% | viability, T/C (second compound 3.16 µM, first compound 0.00316 µM): 93% | viability, T/C (second compound 3.16 µM, first compound 0.00999 µM): 80% | viability, T/C [9]: 74.3% | viability, T/C (second compound 3.16 µM, first compound 0.0999 µM): 61% | viability, T/C [10]: 15.5% | viability, T/C (second compound 10 µM, first compound 0.000999 µM): 85.8% | viability, T/C (second compound 10 µM, first compound 0.00316 µM): 93.7% | viability, T/C (second compound 10 µM, first compound 0.00999 µM): 88.6% | viability, T/C [11]: 68.4% | viability, T/C (second compound 10 µM, first compound 0.0999 µM): 73.2% | viability, T/C [12]: 18.8%
